Experimental data published in patent US5512595A, “Substituted phenoxyisobutyric acids and esters” (Adir et Compagnie, priority 1993, dated 1996).
Counter-ions that a name gives are not always drawn.

Tests used:
human LDL [1] = assay: Modification (peroxidation) of human LDL by copper sulphate, MDA production; format: biochemical; settings: for activity compared with probucol or vitamin E in protecting human LDL: human LDL in vitro, modifications induced by copper sulphate and endothelial cells; for IC50: inhibition of human LDL oxidation induced by copper sulphate (5.10^-6 M), 24 hours, MDA production, read-out: IC50 (M) Cu^2+ (converted)
Method: (§1) The activity of the compounds was tested in comparison with probucol and vitamin E taken as reference products.
1.1.1 Modification of LDL by copper sulphate
Human LDL are incubated for 24 hours in the presence of copper sulphate (5.10^-6 M) and in the absence or in the presence of the test compounds (10^-9 M to 10^-4 M).
After incubation, the peroxidation of the LDL is evaluated by agar gel electrophoresis and by the formation of one of the products of lipid peroxidation: malonic dialdehyde (MDA) (Parthasarathy S., Young S. G., Witztum J. L., Pittman R. C., and Steinberg D.; J. Clin. Invest. 77; 641-644, 1986).
(§2) The activity of the test compounds is evaluated by calculating the concentrations that reduce by 50% (IC50) the production of MDA compared with the control experiments without those compounds.

human LDL [2] = assay: Modification (peroxidation) of human LDL by endothelial cells from the rabbit aorta, MDA production; format: cell-based; settings: for IC50: inhibition of human LDL oxidation induced by endothelial cells (rabbit aorta), 24 hours, MDA production
Method: as §1
1.1.2 Modification of LDL by endothelial cells
Human LDL are incubated for 24 hours in the presence of endothelial cells from the rabbit aorta (RECL B4 line provided by Professor Steinberg, U.S.A), and in the absence or in the presence of the test compounds (10^-9 M to 10^-4 M).
After incubation, the peroxidation of the LDL is evaluated by agar gel electrophoresis and by the formation of one of the products of lipid peroxidation: malonic dialdehyde (MDA) (Steinbrecher U. P., Parthasarathy S., Leake D. S., Witztum J. L., and Steinberg D.; Proc. Nat. Acad. Sci. U.S.A 81, 3883-3887, 1984).
as §2

LDL of Watanabe rabbits = assay: Ex vivo study: peroxidation by copper sulphate of LDL from orally treated Watanabe rabbits, MDA production; format: in vivo
Method: as §1
2.1 Materials and methods
Watanabe rabbits (genetically hyperlipidaemic rabbits) weighing from 3 kg to 5 kg are used. […]
After treatment, the LDL of the animals are prepared by ultracentrifugation and subjected to oxidation with copper sulphate (5.10^-6 M). The lipid peroxidation of the LDL is evaluated after various periods of incubation with copper sulphate (from 2 to 24 hours) by measuring the formation of MDA.
Table B groups the MDA production values according to the period of incubation with copper sulphate of the LDL originating from control animals and from animals treated with the compound of Example 1 at different doses or with probucol.

Molecule	activity compared with probucol or vitamin E in protecting human LDL (human LDL [1])	IC50 (human LDL [1])	IC50 (human LDL [2])	other results
CC(C)(Oc1ccc(CSc2cc(C(C)(C)C)c(O)c(C(C)(C)C)c2)cc1)C(=O)O [Example 4, 2-4-(3,5-di-tert-butyl-4-hydroxyphenylthiomethyl)phenoxy!isobutyric acid]	greater activity	3e-08 M		
Cc1cc(SCCc2ccc(OC(C)(C)C(=O)O)cc2)c(C)c(C)c1O [Example 3, 2-{4-2-(4-hydroxy-2,3,5-trimethylphenylthio)ethyl!phenoxy}isobutyric acid]	greater activity	9e-08 M		
vitamin E [reference compound]		> 0.0001 M	4 µM	
Cc1cc(OCCc2ccc(OC(C)(C)C(=O)O)cc2)c(C)c(C)c1O [Example 9, 2-{4-2-(4-hydroxy-2,3,5-trimethylphenoxy)ethyl!phenoxy}isobutyric acid]		5e-07 M		
CC(C)(Sc1cc(C(C)(C)C)c(O)c(C(C)(C)C)c1)Sc1cc(C(C)(C)C)c(O)c(C(C)(C)C)c1 [PROBUCOL, probucol, reference compound]		3e-06 M	4 µM	retardation of LDL peroxidation compared with control animals (LDL of Watanabe rabbits; 250 mg/kg/day): approximately 2 hours; MDA production (LDL of Watanabe rabbits; 250 mg/kg/day orally, 2 hours incubation of LDL with copper sulphate): 1.85 nmol/mg proteins; MDA production (LDL of Watanabe rabbits; 250 mg/kg/day orally, 4 hours incubation of LDL with copper sulphate): 3.50 nmol/mg proteins; MDA production (LDL of Watanabe rabbits; 250 mg/kg/day orally, 6 hours incubation of LDL with copper sulphate): 4.90 nmol/mg proteins; MDA production (LDL of Watanabe rabbits; 250 mg/kg/day orally, 8 hours incubation of LDL with copper sulphate): 12.26 nmol/mg proteins; MDA production (LDL of Watanabe rabbits; 250 mg/kg/day orally, 24 hours incubation of LDL with copper sulphate): 23.81 nmol/mg proteins
Cc1c(C)c2c(c(C)c1O)CCC(C)(CCCc1ccc(OC(C)(C)C(=O)O)cc1)O2 (racemic) [Example 18, Tert-butylamine (R,S)-2-{4-3-(6-hydroxy-2,5,7,8-tetramethylchroman-2-yl)propyl!phenoxy}isobutyrate]		6e-08 M		
CC(C)(Oc1ccc(CCOc2cc(C(C)(C)C)c(O)c(C(C)(C)C)c2)cc1)C(=O)O [Example 10, 2-{4-2-(3,5-di-tert-butyl-4-hydroxyphenoxy)ethyl!phenoxy}isobutyric acid]		2e-08 M	0.007 µM	
CC(C)(Oc1ccc(CCCSc2cc(C(C)(C)C)c(O)c(C(C)(C)C)c2)cc1)C(=O)O [Example 5, tert-butylamine salt of 2-{4-3-(3,5-di-tert-butyl-4-hydroxyphenylthio)propyl!phenoxy}isobutyric acid]	greater activity	4e-08 M		
Cc1c(C)c2c(c(C)c1O)CCC(C)(/C=C\Cc1ccc(OC(C)(C)C(=O)O)cc1)O2 (racemic) [Example 15, Tert-butylamine (Z)-(R,S)-2-{4-3-(6-hydroxy-2,5,7,8-tetramethylchroman-2-yl)prop-2-en-1-yl!phenoxy}isobutyrate]		4e-08 M		
CC(C)(Oc1ccc(CCSc2cc(C(C)(C)C)c(O)c(C(C)(C)C)c2)cc1)C(=O)O [Example 1, 2-{4-2-(3,5-di-tert-butyl-4-hydroxyphenylthio)ethyl!phenoxy}isobutyric acid]	greater activity	5e-08 M	0.003 µM	times more effective than is probucol (test using endothelial cells) (human LDL [2]; endothelial cells, compared with probucol): 1000 times; MDA production (LDL of Watanabe rabbits; 50 mg/kg/day orally, 3 days, 2 hours incubation of LDL with copper sulphate): 0.66 nmol/mg proteins; MDA production (LDL of Watanabe rabbits; 50 mg/kg/day orally, 3 days, 4 hours incubation of LDL with copper sulphate): 0.35 nmol/mg proteins; MDA production (LDL of Watanabe rabbits; 50 mg/kg/day orally, 3 days, 6 hours incubation of LDL with copper sulphate): 0.31 nmol/mg proteins; MDA production (LDL of Watanabe rabbits; 50 mg/kg/day orally, 3 days, 8 hours incubation of LDL with copper sulphate): 0.26 nmol/mg proteins; MDA production (LDL of Watanabe rabbits; 50 mg/kg/day orally, 3 days, 24 hours incubation of LDL with copper sulphate): 0.86 nmol/mg proteins; inhibition of LDL peroxidation induced by copper sulphate (LDL of Watanabe rabbits; from a dose of 50 mg/kg/day): completely inhibits
